This is an account of results in US5614555A, “Amidinophenol derivatives” (Ono Pharmaceutical Co., Ltd., priority 1992, dated 1997).

Assay [1] has as its target T1, trypsin (derived from bovine pancreas) (Bos taurus, UniProt P00760).
T1 construct: from tissue; host or cells: bovine pancreas
T1 sequence (P00760 24-246): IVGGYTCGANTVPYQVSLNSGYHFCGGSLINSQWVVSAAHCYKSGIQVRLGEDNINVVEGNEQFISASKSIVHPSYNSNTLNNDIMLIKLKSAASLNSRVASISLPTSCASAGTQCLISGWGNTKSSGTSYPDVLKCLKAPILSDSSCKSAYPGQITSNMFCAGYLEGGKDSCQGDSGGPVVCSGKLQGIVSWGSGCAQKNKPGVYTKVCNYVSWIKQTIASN
The assay is described as follows: Inhibitory activity on trypsin. The assay is classed as biochemical. As to conditions: pH8.0, preincubated one minute at 30° C., BAPNA substrate, 30 min, absorbance at 405 nm. On the procedure:
To a mixture of a 0.2M HEPES.sodium hydroxide buffer solution (pH8.0, 100 μl ) and distilled water (640 μl), were added a test compound in various concentration or water (10 μl), and a solution of 80 mU/ml trypsin (derived from bovine pancreas) (50 μl) and then the mixture was preincubated for one minute at 30° C. To the solution thus obtained was added 2.5 mM BAPNA (200 μl) and the mixture was incubated for 30 min. The absorbance at 405 nm was measured. Percentage (%) of the absorbance in the presence of a test compound was calculated when the absorbance in the absence thereof was regarded as 100%, and therefrom IC50 value was calculated.
HEPES represents 4-(2-hydroxyethyl)-1-piperazineethanesulfonic acid, and
BAPNA represents a-N-benzoyl-DL-arginine-p-nitroanilide hydrochloride.

Assay [2] addresses T2, PLA2 (derived from hog pancreas) (Sus scrofa, UniProt P00592).
T2 construct: from tissue; host or cells: hog pancreas
The assay is described as follows: Inhibitory activity on PLA2. The assay is classed as biochemical. As to conditions: pH7.5, 10PY-PC substrate, fluorescence Ex=345 nm, Em=396 nm. On the procedure: A reaction solution including 50 mM tris-HCl buffer (pH7.5, 874 μl; containing 100 mM sodium chloride, 1 mM EDTA), 1M calcium chloride (6 μl), 1% bovine serum albumin (10 μl) and 2.5 mM 10PY-PC (10 μl), was prepared. To the solution were added a test compound in various concentration or water (50 μl), and a solution of 10 mU/ml PLA2 (derived from hog pancreas)(50 μl). The appearance of fluorescence was measured (Ex=345 nm, Em=396 nm). Percentage (%) of the strength of fluorescence in the presence of a test compound was calculated when the strength of that in the absence thereof was regarded as 100%, and therefrom IC50 value was calculated.
10PY-PC represents 3'-palmitoyl-2-(1 -pyrenedecanoyl)-L-α-phosphatidycholine, […]

The test system of assay [3] is PLA2. The settings on record: Japan. J. Pharmacol., 52, 23-34, 1990; cited from earlier work.

Where a name gives a salt, the structure may show the parent alone.

T2 sequence (P00592 23-146): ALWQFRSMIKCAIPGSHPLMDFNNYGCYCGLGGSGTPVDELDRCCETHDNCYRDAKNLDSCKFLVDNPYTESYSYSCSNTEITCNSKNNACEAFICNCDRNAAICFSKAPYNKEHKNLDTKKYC

Consider `CCOC(=O)CC[C@H](NC(=O)/C(C)=C/c1ccc(C(=O)Oc2ccc(C(=N)N)cc2)cc1)C(=O)OCC` [1(d), p-(p-amidino-phenoxycarbonyl)-α-methylcinnamicacid N-[1-(S),3-bis-(ethoxycarbonyl)]-propylamidehydrochloride], for which the values for the IC50 in assay [1] and in assay [2] were 130 nM and 63000 nM, respectively.
Turning to `CCOC(=O)CN(C(=O)/C(C)=C/c1ccc(C(=O)Oc2ccc(C(=N)N)cc2)cc1)c1ccc(F)cc1` [1(g), p-(p-amidino-phenoxycarbonyl)-α-methylcinnamicacid N-(p-fluoro-phenyl)-N-ethoxy-carbonylmethyl-amidemethanesulfonate], the IC50 in assay [1] came out at 140 nM; in assay [2], 5300 nM.
The matching figures for `C=CCN(CC(=O)OCC)C(=O)/C(C)=C/c1ccc(C(=O)Oc2ccc(C(=N)N)cc2)cc1` [1(i), p-(p-amidino-phenoxycarbonyl)-α-methylcinnamicacid N-allyl-N-ethoxycarbonylmethylamideacetate]: 130 nM and 28000 nM.
For `CCOC(=O)CN(C(=O)/C=C(\C)c1ccc(C(=O)Oc2ccc(C(=N)N)cc2)cc1)c1ccccc1` [1(k), p-(p-amidino-phenoxycarbonyl)-β-methylcinnamicacid N-phenyl-N-ethoxycarbonyl-methylamidehydrochloride], the IC50 was found to be 220 nM in assay [1] and 3100 nM in assay [2].
`CCOC(=O)CN(C(=O)c1ccc(C(=O)Oc2ccc(C(=N)N)cc2C(=O)OC)cc1)c1ccccc1` [1(p), p-(p-amidino-o-methoxycarbonyl-phenoxycarbonyl)-benzoic acid N-phenyl-N-ethoxy-carbonylmethyl-amide acetate] showed an IC50 in assay [1] of 150 nM.
As for `N=C(N)c1ccc(OC(=O)c2ccc(C(=O)N3CCN(Cc4ccccc4)CC3)cc2)cc1` [1(t), p-(p-amidino-phenoxycarbonyl)-benzoic acid N'-phenylmethyl-piperazinylamidedihydrochloride], the values for the IC50 in assay [1] and in assay [2] were 220 nM and 24000 nM, respectively.
The matching figures for `N=C(N)c1ccc(OC(=O)c2ccc(C(=O)N3CCC[C@@H]3C(=O)OCc3ccccc3)cc2)cc1` [2(f), p-(p-amidinophenoxycarbonyl)benzoic acid-N-(2-(R)-benzyloxycarbonyl)pyrrolidinylamideacetic acid]: 140 nM and 32000 nM.
For the molecule `CCOC(=O)CN(Cc1ccccc1)C(=O)/C(C)=C/c1ccc(C(=O)Oc2ccc(C(=N)N)cc2)cc1` [Example 1, p-(p-Amidinophenoxycarbonyl)-α-methylcinnamic acid N-ethoxycarbonylmethyl-N-phenylmethylamide hydrochloride], the IC50 is 140 nM in assay [1] and 4800 nM in assay [2].
The matching figures for `CCOC(=O)CN(C(=O)/C=C/c1ccc(C(=O)Oc2ccc(C(=N)N)cc2)cc1)c1ccccc1` [Example 2(a), p-(p-amidinophenoxycarbonyl)cinnamic acid-N-phenyl-N-ethoxycarbonylmethyl amidehydrochloride]: 140 nM and 15000 nM.
On to `C=CCN(CC(=O)O)C(=O)/C(C)=C/c1ccc(C(=O)Oc2ccc(C(=N)N)cc2)cc1` [Example 4, p-(p-Amidinophenoxycarbonyl)-α-methylcinnamic acid N-carboxymethyl-N-allylamide methanesulfonate], for which it took 100 nM to reach half-maximal inhibition in assay [1] (IC50).
As for `CN(C)C(=O)COC(=O)Cc1ccc(OC(=O)c2ccc(NC(=N)N)cc2)cc1` [camostat mesylate], the “inhibitory activity on PLA2 (in words)” value in assay [3] was “having an inhibitory activity on PLA2”.
Regarding `N=C(N)Nc1ccc(C(=O)Oc2ccc3cc(C(=N)N)ccc3c2)cc1` [nafamostat mesilate], the “inhibitory activity on PLA2 (in words)” value in assay [3] is given as “having an inhibitory activity on PLA2”.
